From patent US20090239887A1, “Method of resolution and antiviral activity of 1,3-oxathiolane nucleoside enantiomers” (Emory University, priority 1990, published 2009)
Read-outs that look alike come from different tables or passages of the source.

How the values were obtained:
[1] = tested on: AZT-resistant, HIV isolates; settings: isolates from patients treated with AZT for longer than 36 weeks; cited from earlier work
HIV = settings: cited from earlier work
HIV-1 (strain LAV) = assay: microbe, parasite or virus in culture; type: cell-based
Source text: It is often desirable to screen a number of racemic mixtures of nucleosides as a preliminary step to determine which warrant further resolution into enantiomerically enriched components and evaluation of antiviral activity. The ability of nucleosides to inhibit HIV can be measured by various experimental techniques. The technique used herein, and described in detail below, measures the inhibition of viral replication in phytohemagglutinin (PHA) stimulated human peripheral blood mononuclear (PBM) cells infected with HIV-1 (strain LAV). The amount of virus produced is determined by measuring the virus-coded reverse transcriptase enzyme. The amount of enzyme produced is proportional to the amount of virus produced.
A. Three-day-old phytohemagglutinin-stimulated PBM cells (10^6 cells/ml) from hepatitis B and HIV-1 seronegative healthy donors were infected with HIV-1 (strain LAV) at a concentration of about 100 times the 50% tissue culture infectious dose (TICD 50) per ml and cultured in the presence and absence of various concentrations of antiviral compounds.
B. Approximately one hour after infection, the medium, with the compound to be tested (2 times the final concentration in medium) or without compound, was added to the flasks (5 ml; final volume 10 ml). AZT was used as a positive control.
C. The cells were exposed to the virus (about 2×10^5 dpm/ml, as determined by reverse transcriptase assay) and then placed in a CO2 incubator. HIV-1 (strain LAV) was obtained from the Center for Disease Control, Atlanta, Ga. The methods used for culturing the PBM cells, harvesting the virus and determining the reverse transcriptase activity were those described by McDougal et al. (J. Immun. Meth. 76, 171-183, 1985) and Spira et al. (J. Clin. Meth. 25, 97-99, 1987), except that fungizone was not included in the medium (see Schinazi, et al., Antimicrob. Agents Chemother. 32, 1784-1787 (1988); Id., 34:1061-1067 (1990)).
D. On day 6, the cells and supernatant were transferred to a 15 ml tube and centrifuged at about 900 g for 10 minutes. Five ml of supernatant were removed and the virus was concentrated by centrifugation at 40,000 rpm for 30 minutes (Beckman 70.1 Ti rotor). The solubilized virus pellet was processed for determination of the levels of reverse transcriptase. Results are expressed in dpm/ml of sampled supernatant. Virus from smaller volumes of supernatant (1 ml) can also be concentrated by centrifugation prior to solubilization and determination of reverse transcriptase levels.

human PBM cells = assay: Egress of radiolabeled (±)-FTC from human PBM cells; type: in vitro ADME; settings: 48 hours after the removal of the extracellular drug
Description: (§1) Studies are conducted in duplicate. Uninfected cells (2×10^6 ml) are suspended in the appropriate medium supplemented with serum (10 ml per timepoint) and incubated at 37° C. in a 5% CO2 incubator. Radiolabeled FTC concentration is 10 μM. After pulsing the cells with the labeled compound for the desired time, the cells are thoroughly washed and then replenished with fresh medium without the antiviral drugs (0 hr). At 0, 2, 4, 6, 12, 24, and 48 hours (second incubation time), the cells are removed, and immediately extracted with 60% cold methanol/water. The extract is obtained by centrifugation and removal of the cell pellet. The extracts are lyophilized and then stored at −70° C. Prior to analysis, the material is resuspended in 250 μl of HPLC buffer and immediately analyzed.
(§2) Either a Micromeritics or Hewlett-Packard model 1090 PHLC system is used with an anion exchange Partisil 10 SAX column (Whatman, Inc.), at a flow rate of 1 ml/min, 1 kpsi pressure, using uv detection at 262 nm.
(§3) The mobile phase consists of:
(§4) b. 2 mM NaH2PO4/16 mM NaOAc (pH=6.6)
(§5) Separation method: isocratic for 5 min with A, followed by a 15 min linear gradient to 100% B, followed by a 20 min linear gradient to 100% C, followed by 10 min linear gradient to 100% D, followed by 30 min isocratic with 100% D.

[2] = as above; type: in vitro ADME; settings: human PBM cells, after 24 hour pulse with 10 μM; read-out: intracellular half-life (converted)
Description: as §1, §2, §3, §4, §5

HIV RT = molecular target: T1, HIV RT (Human immunodeficiency virus type 1 group M subtype B, UniProt P04585); assay: Affinity of triphosphate against HIV RT; type: biochemical; settings: read-out: affinity (K^1) against HIV RT
T1 construct: (±)-FTC triphosphate against HIV RT is 0.2 μM

[3] = Cytotoxicity in mitogen stimulated uninfected human PBM cells (trypan blue exclusion); type: cell-based
Source text: The cells were counted after 6 days using a hemacytometer and the trypan blue exclusion method, as described by Schinazi et al., Antimicrobial Agents and Chemotherapy, 22(3), 499 (1982).

[4] = molecular target: reverse transcriptase activity; settings: read-out: EC50, concentration required to reduce the reverse transcriptase activity by 50%; cited from earlier work

SMILES: Nc1ccn(C2CSC(CO)O2)c(=O)n1 (racemic) [BCH-189 (±), 2-hydroxymethyl-5-(cytosin-1-yl)-1,3-oxathiolane, reference compound]
- replication of AZT-resistant HIV isolates [1]: inhibit the replication
- activity against HIV compared with AZT (HIV): approximately the same activity against HIV as AZT
- DPM/ml (HIV-1 (strain LAV); 0.001 μM): 65,170 DPM/ml
- DPM/ml (HIV-1 (strain LAV); 0.005 μM): 62,595 DPM/ml
- DPM/ml (HIV-1 (strain LAV); 0.01 μM): 70,875 DPM/ml
- DPM/ml (HIV-1 (strain LAV); 0.05 μM): 77,650 DPM/ml
- DPM/ml (HIV-1 (strain LAV); 0.1 μM): 33,165 DPM/ml
- DPM/ml (HIV-1 (strain LAV); 0.5 μM): 10,765 DPM/ml
- DPM/ml (HIV-1 (strain LAV); 1 μM): 7,745 DPM/ml
- DPM/ml (HIV-1 (strain LAV); 5 μM): 6,800 DPM/ml
- DPM/ml (HIV-1 (strain LAV); 10 μM): 4,470 DPM/ml
- EC50 (HIV-1 (strain LAV); Human immunodeficiency virus 1, PBMC, human PBM cells infected with HIV-1, enantiomers isolated by chiral HPLC (Example 3), read-out: EC50): 81 nM
- inhibition at 0.001 µM (HIV-1 (strain LAV); Human immunodeficiency virus 1, PBMC, 0.001 μM, read-out: % Inhibition (Corrected)): 36.1%
- inhibition at 0.005 µM (HIV-1 (strain LAV); Human immunodeficiency virus 1, PBMC, 0.005 μM, read-out: % Inhibition (Corrected)): 38.9%
- inhibition at 0.01 µM (HIV-1 (strain LAV); Human immunodeficiency virus 1, PBMC, 0.01 μM, read-out: % Inhibition (Corrected)): 29.8%
- inhibition at 0.05 µM (HIV-1 (strain LAV); Human immunodeficiency virus 1, PBMC, 0.05 μM, read-out: % Inhibition (Corrected)): 22.3%
- inhibition at 0.1 µM (HIV-1 (strain LAV); Human immunodeficiency virus 1, PBMC, 0.1 μM, read-out: % Inhibition (Corrected)): 71.4%
- inhibition at 0.5 µM (HIV-1 (strain LAV); Human immunodeficiency virus 1, PBMC, 0.5 μM, read-out: % Inhibition (Corrected)): 96.2%
- inhibition at 1 µM (HIV-1 (strain LAV); Human immunodeficiency virus 1, PBMC, 1 μM, read-out: % Inhibition (Corrected)): 99.5%
- inhibition at 5 µM (HIV-1 (strain LAV); Human immunodeficiency virus 1, PBMC, 5 μM, read-out: % Inhibition (Corrected)): 101%
- inhibition at 10 µM (HIV-1 (strain LAV); Human immunodeficiency virus 1, PBMC, 10 μM, read-out: % Inhibition (Corrected)): 103%

SMILES: Nc1nc(=O)n(C2CSC(COP(=O)(O)OP(=O)(O)OP(=O)(O)O)O2)cc1F (racemic) [FTC-triphosphate]
- intracellular concentration (human PBM cells): 1 to 5 µM
- half-life at 10 μM [2]: ~12 h
- Ki (HIV RT): 200 nM

SMILES: Nc1nc(=O)n(C2CSC(CO)O2)cc1F (single isomer, unassigned; (+)) [DLS-059 (+), (+)-2-hydroxymethyl-5-(5-fluorocytosin-1-yl)-1,3-oxathiolane]
- DPM/ml (HIV-1 (strain LAV); 0.001 μM, listed as FTC (+)): 94,340 DPM/ml
- % Inhibition (Corrected) (HIV-1 (strain LAV); 0.001 μM, listed as FTC (+), 0.001 µM): 3.8%
- DPM/ml (HIV-1 (strain LAV); 0.005 μM, listed as FTC (+)): 107,430 DPM/ml
- % Inhibition (Corrected) (HIV-1 (strain LAV); 0.005 μM, listed as FTC (+), 0.005 µM): −10.6%
- DPM/ml (HIV-1 (strain LAV); 0.01 μM, listed as FTC (+)): 99,465 DPM/ml
- % Inhibition (Corrected) (HIV-1 (strain LAV); 0.01 μM, listed as FTC (+), 0.01 µM): −1.8%
- DPM/ml (HIV-1 (strain LAV); 0.05 μM, listed as FTC (+)): 87,120 DPM/ml
- % Inhibition (Corrected) (HIV-1 (strain LAV); 0.05 μM, listed as FTC (+), 0.05 µM): 11.8%
- DPM/ml (HIV-1 (strain LAV); 0.1 μM, listed as FTC (+)): 86,340 DPM/ml
- % Inhibition (Corrected) (HIV-1 (strain LAV); 0.1 μM, listed as FTC (+), 0.1 µM): 12.7%
- DPM/ml (HIV-1 (strain LAV); 0.5 μM, listed as FTC (+)): 33,225 DPM/ml
- % Inhibition (Corrected) (HIV-1 (strain LAV); 0.5 μM, listed as FTC (+), 0.5 µM): 71.4%
- EC50 (HIV-1 (strain LAV); summary range, listed as (+)-enantiomer of FTC, read-out: EC50 against HIV): 280 to 840 nM

SMILES: Nc1nc(=O)n(C2CSC(CO)O2)cc1F (single isomer, unassigned; (-)) [DLS-058 (−), (−)-2-hydroxymethyl-5-(5-fluorocytosin-1-yl)-1,3-oxathiolane]
- % Inhibition (Corrected) (HIV-1 (strain LAV); 0.001 μM, listed as FTC (−)): 23.8%
- DPM/ml (HIV-1 (strain LAV); 0.001 μM, listed as FTC (−)): 76,275 DPM/ml
- % Inhibition (Corrected) (HIV-1 (strain LAV); 0.005 μM, listed as FTC (−)): 43.3%
- DPM/ml (HIV-1 (strain LAV); 0.005 μM, listed as FTC (−)): 58,590 DPM/ml
- % Inhibition (Corrected) (HIV-1 (strain LAV); 0.01 μM, listed as FTC (−)): 24.8%
- DPM/ml (HIV-1 (strain LAV); 0.01 μM, listed as FTC (−)): 75,350 DPM/ml
- % Inhibition (Corrected) (HIV-1 (strain LAV); 0.05 μM, listed as FTC (−)): 76.2%
- DPM/ml (HIV-1 (strain LAV); 0.05 μM, listed as FTC (−)): 28,890 DPM/ml
- % Inhibition (Corrected) (HIV-1 (strain LAV); 0.1 μM, listed as FTC (−)): 93.5%
- DPM/ml (HIV-1 (strain LAV); 0.1 μM, listed as FTC (−)): 13,175 DPM/ml
- % Inhibition (Corrected) (HIV-1 (strain LAV); 0.5 μM, listed as FTC (−)): 97.6%
- DPM/ml (HIV-1 (strain LAV); 0.5 μM, listed as FTC (−)): 9,485 DPM/ml
- EC50 (HIV-1 (strain LAV); summary range, read-out: EC50 against HIV): 7.7 to 20 nM
- activity against HBV (HBV (hepatitis B virus)): significant activity
- IC50 at 6 days [3]: > 100000 nM

SMILES: Nc1nc2c(ncn2[C@H]2C=C[C@@H](CO)O2)c(=O)[nH]1 [(+)-enantiomer of carbovir, 2′,3′-didehydro-2′,3′-dideoxyguanosine]
- EC50 [4]: > 60000 nM

SMILES: Nc1nc2c(ncn2[C@H]2C=C[C@@H](CO)O2)c(=O)[nH]1 [(−)-enantiomer of carbovir, 2′,3′-didehydro-2′,3′-dideoxyguanosine]
- EC50 [4]: 800 nM
